Data published in ChEMBL document CHEMBL1201862, “PubChem BioAssay data set” (2004).
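Compound exposure: 48 hours, 5 concentrations, 96-well plates. Abbreviation: GI50, concentration required for 50% inhibition of growth.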 Calls of active or inactive are those of the source. Cut-off read from the data, not from the text of the source: active = GI50 up to about 1.1 µM and inactive = higher.

Assays:
Assay in all cases: NCI-60 cell line screen, 48 h
EKVX = test system: EKVX
NCI-H522 = test system: NCI-H522
IGROV-1 = test system: IGROV-1
SK-MEL-2 = test system: SK-MEL-2
SK-OV-3 = test system: SK-OV-3
K562 = test system: K562
HCT-116 = test system: HCT-116
A498 = test system: A498
NCI-H23 = test system: NCI-H23
Hs-578T = test system: Hs-578T
SK-MEL-28 = test system: SK-MEL-28
SR = test system: SR
T47D = test system: T47D
OVCAR-4 = test system: OVCAR-4
RPMI-8226 = test system: RPMI-8226
LOX IMVI = test system: LOX IMVI
SW-620 = test system: SW-620
HOP-92 = test system: HOP-92
CCRF-CEM = test system: CCRF-CEM
NCI-H460 = test system: NCI-H460

Structure (SMILES)	GI50 (EKVX)	GI50 (NCI-H522)	GI50 (IGROV-1)	GI50 (SK-MEL-2)	GI50 (SK-OV-3)	GI50 (K562)	GI50 (HCT-116)	GI50 (A498)	GI50 (NCI-H23)	GI50 (Hs-578T)	GI50 (SK-MEL-28)	GI50 (SR)	GI50 (T47D)	GI50 (OVCAR-4)	GI50 (RPMI-8226)	GI50 (LOX IMVI)	GI50 (SW-620)	GI50 (HOP-92)	GI50 (CCRF-CEM)	GI50 (NCI-H460)
CC1=C/C(=C(/c2ccc(O)c(C)c2)c2ccccc2C(=O)O)C=CC1=O	19.4 µM (inactive)	21.5 µM (inactive)	18.1 µM (inactive)	20.6 µM (inactive)	19.2 µM (inactive)	21.3 µM (inactive)	18.2 µM (inactive)	18.7 µM (inactive)	20.2 µM (inactive)	25.4 µM (inactive)	20.4 µM (inactive)	20.7 µM (inactive)	26.8 µM (inactive)	18.1 µM (inactive)	20 µM (inactive)	20.7 µM (inactive)	19 µM (inactive)	20.3 µM (inactive)	21.8 µM (inactive)	31.5 µM (inactive)
CCOC(=O)/C=C(/C(=O)OCC)n1ccc(=O)n(/C(=C/C(=O)OCC)C(=O)OCC)c1=O	11.4 µM (inactive)	1.61 µM (inactive)	15.9 µM (inactive)	12.7 µM (inactive)	23.6 µM (inactive)	2.99 µM (inactive)	2.39 µM (inactive)	21.8 µM (inactive)	16 µM (inactive)	20.9 µM (inactive)	13.1 µM (inactive)	5.28 µM (inactive)	4.48 µM (inactive)	9.93 µM (inactive)	2.7 µM (inactive)	5.19 µM (inactive)	2.04 µM (inactive)	2.07 µM (inactive)	1.37 µM (inactive)	17.3 µM (inactive)
CC1(C)COC2=C(C1)C(=O)c1ccccc1C2=O	1.9 µM (inactive)	1.85 µM (inactive)	1.65 µM (inactive)	1.91 µM (inactive)	1.88 µM (inactive)	0.102 µM (active)	0.449 µM (active)	2.1 µM (inactive)	1.54 µM (inactive)	2.88 µM (inactive)	1.64 µM (inactive)	2.66 µM (inactive)	0.558 µM (active)	1.53 µM (inactive)	1.32 µM (inactive)	1.88 µM (inactive)	1.69 µM (inactive)	2.3 µM (inactive)	2.37 µM (inactive)	1.91 µM (inactive)
CC(=O)N[C@@H](Cc1ccc(O)cn1)C(=O)NCc1cccc(F)c1	> 100 µM (inactive)	> 100 µM (inactive)	> 100 µM (inactive)	> 100 µM (inactive)	> 100 µM (inactive)	> 100 µM (inactive)	> 100 µM (inactive)	> 100 µM (inactive)	> 100 µM (inactive)	> 100 µM (inactive)	> 100 µM (inactive)	59.7 µM (inactive)	> 100 µM (inactive)	> 100 µM (inactive)	> 100 µM (inactive)	> 100 µM (inactive)	> 100 µM (inactive)	30.9 µM (inactive)	> 100 µM (inactive)	> 100 µM (inactive)
CC(=O)OCC1OC(n2c3c(c(-c4ccco4)c(C#N)c2=S)CCCC3)C(OC(C)=O)C(OC(C)=O)C1OC(C)=O (stereo not given)	16.6 µM (inactive)	16.3 µM (inactive)	21.9 µM (inactive)	17.9 µM (inactive)	> 10 µM (inactive)	> 10 µM (inactive)	21.3 µM (inactive)	12.1 µM (inactive)	> 20.2 µM (inactive)	29.4 µM (inactive)	> 31.6 µM (inactive)	> 31.6 µM (inactive)	> 31.6 µM (inactive)	9.16 µM (inactive)	> 100 µM (inactive)	> 31.6 µM (inactive)	> 100 µM (inactive)	7.36 µM (inactive)	> 10 µM (inactive)	22.9 µM (inactive)
COc1cc(Nc2nc3ccccc3nc2C(C)C)cc(OC)c1OC	42.7 µM (inactive)	81.7 µM (inactive)	> 100 µM (inactive)	> 100 µM (inactive)	> 100 µM (inactive)	> 100 µM (inactive)	> 100 µM (inactive)	> 100 µM (inactive)	> 100 µM (inactive)	> 100 µM (inactive)	> 100 µM (inactive)	> 100 µM (inactive)	> 100 µM (inactive)	> 100 µM (inactive)	83.2 µM (inactive)	> 100 µM (inactive)	> 100 µM (inactive)	34 µM (inactive)	> 100 µM (inactive)	> 100 µM (inactive)
CCCCC1C=Cn2c(=O)oc3c(OC(C)C)c(C)c(O)c1c32 (stereo not given)	2.48 µM (inactive)	1.24 µM (inactive)	1.88 µM (inactive)	1.66 µM (inactive)	3.14 µM (inactive)	0.91 µM (active)	0.977 µM (active)	0.0423 µM (active)	1.48 µM (inactive)	0.684 µM (active)	1.19 µM (inactive)	0.548 µM (active)	1.85 µM (inactive)	0.601 µM (active)	1.42 µM (inactive)	0.566 µM (active)	0.904 µM (active)	3.05 µM (inactive)	1.68 µM (inactive)	0.652 µM (active)
Cc1ccc(-c2cn3c(nc4ccccc43)c(-c3ccccc3)n2)cc1	> 100 µM (inactive)	20.5 µM (inactive)	37.9 µM (inactive)	18 µM (inactive)	18.3 µM (inactive)	> 100 µM (inactive)	75 µM (inactive)	30.9 µM (inactive)	24 µM (inactive)	15.3 µM (inactive)	> 100 µM (inactive)	> 100 µM (inactive)	32.1 µM (inactive)	> 80.7 µM (inactive)	> 100 µM (inactive)	> 100 µM (inactive)	> 100 µM (inactive)	20.7 µM (inactive)	> 100 µM (inactive)	> 94.4 µM (inactive)
C[C@@H]1CC[C@@]2(C)[C@H](C)/C(=C\COC(=O)/C=C/c3ccc(O)c(O)c3)CC[C@@]12C [NAVICULYL CAFFEATE]	15 µM (inactive)	1.28 µM (inactive)	7.31 µM (inactive)	12.6 µM (inactive)	12.4 µM (inactive)	4.99 µM (inactive)	2.78 µM (inactive)	12.9 µM (inactive)	9.23 µM (inactive)	13.2 µM (inactive)	10.8 µM (inactive)	2.41 µM (inactive)	12.6 µM (inactive)	4.65 µM (inactive)	2.21 µM (inactive)	6.01 µM (inactive)	4.95 µM (inactive)	14.1 µM (inactive)	1.11 µM (active)	3.57 µM (inactive)
COC(=O)C(/C(=N/NC(=O)c1ccncc1)C(=O)Nc1ccccc1OC)c1nc2ccc(Cl)cc2nc1O (stereo not given)	77.8 µM (inactive)	> 100 µM (inactive)	11 µM (inactive)	> 100 µM (inactive)	> 100 µM (inactive)	75.9 µM (inactive)	83.4 µM (inactive)	> 100 µM (inactive)	> 100 µM (inactive)	> 100 µM (inactive)	> 100 µM (inactive)	0.78 µM (active)	> 100 µM (inactive)	55 µM (inactive)	75.5 µM (inactive)	> 100 µM (inactive)	> 100 µM (inactive)	> 100 µM (inactive)	> 10 µM (inactive)	> 100 µM (inactive)
O=C1C(c2c(O)[nH]c3ccc(Br)cc23)=Nc2ccc(Br)cc21	38.1 µM (inactive)	83 µM (inactive)	1.71 µM (inactive)	> 100 µM (inactive)	28.9 µM (inactive)	43.9 µM (inactive)	18 µM (inactive)	> 100 µM (inactive)	27.5 µM (inactive)	51.4 µM (inactive)	> 100 µM (inactive)	32.1 µM (inactive)	> 100 µM (inactive)	53.7 µM (inactive)	> 100 µM (inactive)	62.1 µM (inactive)	74.5 µM (inactive)	> 100 µM (inactive)	63.5 µM (inactive)	37 µM (inactive)
O=C(CN(c1ccc(S(=O)(=O)O)cc1)c1ccc(S(=O)(=O)O)cc1)Nn1cnc2ccc(S(=O)(=O)N(c3ccc(S(=O)(=O)O)cc3)c3ccc(S(=O)(=O)O)cc3)cc2c1=O	> 100 µM (inactive)	> 100 µM (inactive)	61.2 µM (inactive)	> 100 µM (inactive)	> 100 µM (inactive)	> 100 µM (inactive)	> 100 µM (inactive)	> 100 µM (inactive)	> 100 µM (inactive)	> 100 µM (inactive)	> 100 µM (inactive)	> 100 µM (inactive)	> 100 µM (inactive)	> 100 µM (inactive)	> 100 µM (inactive)	> 100 µM (inactive)	> 100 µM (inactive)	> 100 µM (inactive)	> 100 µM (inactive)	> 100 µM (inactive)
